Results from patent publication US8519154B2, “Method for treatment of bronchial asthma” (Council of Scientific & Industrial Research, priority 2011, dated 2013).
Where two headings read alike, the source gives them in different places.

Legend:
[1] = Determination of pharmacokinetics in mice; assay type: in vivo, swiss mice
Method: Treatment of animal: Healthy swiss mice of both the sexes (25-30) were used. The animals were kept (3/cage) under controlled conditions (temp 26±2° C.; relative humidity 50±5%; 12 h light/dark cycle) and maintained on pelleted rodent diet […]. Ashirwad Industries Ltd. Chandigarh, India). Water was provided ad libitum. Compound I was solubilised in 2% gum acacia by trituration and diluted with normal saline to obtained desired concentration. The compound was administered orally (20 mg/kg BW) or via intravenous route (10 mg/kg bw).
Sampling time: Blood samples were collected at 0, 5, 15 and 30 min, and 1, 2, 4, 6, 8, 16 and 24 hrs post-administration after oral/iv route in pre-labeled heparinised tubes and centrifuged (3500 rpm×10 minutes) to obtain the plasma. A total of 6 animals were used per time point.
(i) Aliquots of plasma (250 ul) were mixed with ethyl acetate (3 ml), vortexed for two minutes (2500 rpm) and centrifuged at 5000 rpm for 10 min. The organic layer was collected and evaporated to dryness using solvent evaporator (Model: SPD 111V, Thermo Electron Corporation, MA). The dried samples were reconstituted in mobile phase for HPLC analysis.
(2) Calibration standards were prepared from aliquots of plasma collected from untreated animals which were spiked with molecule I (0.25 μg-10 μg/ml). […] The extraction efficiency of the molecule from plasma matrix was 90-93%.
HPLC determinations HPLC determinations were done on Thermofinningan chromatograph (Model: SpectraSystem SCM 1000 equipped with quaternary pump P-4000; autosampler AS 3000; UV 6000 LP): diode array detector). Molecule D8 was run under the following conditions:
Column: RP-8 (5 um); Mobile Phase: Acetonitrile:Water (51:49); Wavelength: 272 nm Flow Rate: 1 ml/min; Retention time: 8.035 min; The lower limit of detection (LOD): 3.5 ng/ml; limit of quantitation (LOQ): 10 ng/ml.
Bioavailability indices. A concentration-time curve for Molecule D8 was established and pharmacokinetic parameters (Cmax, Tmax, AUC0-24, Clerance (Cl) and Volume of Distribution (vd) were determined by using a software (PK Solutions version 2.0; Summit Research Services, USA).
Absolute bioavailability was determined using the following formula: AUCoral×doseiv/AUCv×Doseoral.

[2] = Organ distribution of ICB/11/D-8; assay type: in vivo; conditions: Swiss, mouse, N=4 mice
Method: Organ Distribution of ICB/11/D-8 (ug/100 mg tissue, N=4 mice, 50

[3] = system: Male wistar rats; assay: Blood pressure, heart rate and respiratory rate by telemetry; assay type: in vivo; parameters: RR: unit not given beside the values; conditions: for RR / HR / DBP / SBP: 50 mg/kg i.v.; for HR: in bpm (unit assumed); for DBP / SBP: in mmHg (unit assumed)
Method: Male wistar rats of approximately 6 months of age were anaesthetised with a mixture of ketamine (40 mg/kg) and xylazine (5 mg/kg) and fitted with TL11M2-C50PXT telemetry transmitters (Data Sciences Intl., St. Paul, Minn., USA) in the peritoneal cavity by performing surgery. Experiments were performed 15 days after surgery. Individual rats were placed in plastic cage on top of a receiver (RLA 2000, Data Science) for the measurement of systolic BP, diastolic BP, Heart rate and respiratory rate. The signals from the transmitters were received by two RLA 2000 receivers and transmitted via a Data Exchange Matrix to a Dataquest PCI card CQ 2240 in the computer. The data were interpreted by the Dataquest program A.R.T. version 2.2 Gold Version.

[4] = system: OVA sensitized and challenged mice, lung sections; assay: Histological analysis of lung inflammation in mouse model of asthma; assay type: in vivo; conditions: H&E lung sections
Method: To determine the effect of Compound I on airway inflammation, histopathological analysis of formalin fixed, paraffin embedded lung sections was performed. The excised lung portion was fixed in 10% buffered formalin. The fixed, paraffin embedded tissue were sectioned into 4 μm sections and stained with Hematoxylin & Eosin (H&E) to assess inflammation

[5] = Plasma binding; assay type: in vitro ADME
[6] = biological target: CYP 3A4 (liver) (Homo sapiens, UniProt P08684); assay: Metabolism by CYP 3A4; assay type: in vitro ADME
Sequence of CYP 3A4 (liver) (P08684 whole entry, species assumed): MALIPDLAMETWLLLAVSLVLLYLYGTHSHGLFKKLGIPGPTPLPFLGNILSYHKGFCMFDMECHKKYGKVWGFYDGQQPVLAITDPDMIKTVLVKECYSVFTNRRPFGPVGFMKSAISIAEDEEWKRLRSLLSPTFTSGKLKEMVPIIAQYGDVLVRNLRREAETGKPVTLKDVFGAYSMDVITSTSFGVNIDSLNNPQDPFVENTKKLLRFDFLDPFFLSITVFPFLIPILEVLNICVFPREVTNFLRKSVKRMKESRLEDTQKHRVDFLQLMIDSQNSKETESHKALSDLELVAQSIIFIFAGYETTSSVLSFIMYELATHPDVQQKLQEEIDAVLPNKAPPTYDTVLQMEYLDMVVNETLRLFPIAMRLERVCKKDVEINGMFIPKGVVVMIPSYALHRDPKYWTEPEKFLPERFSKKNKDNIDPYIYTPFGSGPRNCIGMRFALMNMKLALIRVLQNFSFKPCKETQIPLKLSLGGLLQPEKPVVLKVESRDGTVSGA

Compound: COc1cc(C=O)cc2c1[nH]c1ccccc12 [Compound I, 1-methoxy-3-formyl-9H carbazole]
- amounts detected in urine ([1]; after 24 hrs): negligible amounts
- plasma clearance rate ([1]; mouse, in vivo): good plasma clearance rate
- volume of distribution ([1]; mouse, in vivo): volume of distribution is high
- intact drug stays in the circulation ([1]; oral administration): ≤ 12 h
- concentration at 0.5 hr ([2]; brain, 0.5 hr, read-out: Organ distribution: Brain): 2300 ng/g
- concentration at 2 hr ([2]; brain, 2 hr, read-out: Organ distribution: Brain): 26700 ng/g
- concentration at 4 hr ([2]; brain, 4 hr, read-out: Organ distribution: Brain): 43300 ng/g
- concentration at 12 hr ([2]; brain, 12 hr, read-out: Organ distribution: Brain): 3600 ng/g
- concentration at 0.5 hr ([2]; heart, 50 not found, 0.5 hr, read-out: Organ distribution: Heart): 185000 ng/g
- concentration at 2 hr ([2]; heart, 2 hr, read-out: Organ distribution: Heart): 263000 ng/g
- concentration at 4 hr ([2]; heart, 4 hr, read-out: Organ distribution: Heart): 168000 ng/g
- concentration at 12 hr ([2]; heart, 12 hr, read-out: Organ distribution: Heart): 32200 ng/g
- concentration at 0.5 h ([2]; intestine, 0.5 hr): 105000 ng/g
- concentration at 2 h ([2]; intestine, 2 hr): 168000 ng/g
- concentration at 4 h ([2]; intestine, 4 hr): 124000 ng/g
- concentration at 12 h ([2]; intestine, 12 hr): 25500 ng/g
- concentration at 0.5 hr ([2]; kidneys, 0.5 hr, read-out: Organ distribution: Kidneys): 135000 ng/g
- concentration at 2 hr ([2]; kidneys, 2 hr, read-out: Organ distribution: Kidneys): 171000 ng/g
- concentration at 4 hr ([2]; kidneys, 4 hr, read-out: Organ distribution: Kidneys): 105000 ng/g
- concentration at 12 hr ([2]; kidneys, 12 hr, read-out: Organ distribution: Kidneys): 15800 ng/g
- concentration at 0.5 hr ([2]; liver, 0.5 hr, read-out: Organ distribution: Liver): 89500 ng/g
- concentration at 2 hr ([2]; liver, 2 hr, read-out: Organ distribution: Liver): 168000 ng/g
- concentration at 4 hr ([2]; liver, 4 hr, read-out: Organ distribution: Liver): 110000 ng/g
- concentration at 12 hr ([2]; liver, 12 hr, read-out: Organ distribution: Liver): 12500 ng/g
- concentration at 2 hr ([2]; lungs, 50 not found, 2 hr, read-out: Organ distribution: Lungs): 273000 ng/g
- concentration at 4 hr ([2]; lungs, 50 not found, 4 hr, read-out: Organ distribution: Lungs): 80700 ng/g
- concentration at 12 hr ([2]; lungs, 50 not found, 12 hr, read-out: Organ distribution: Lungs): 6700 ng/g
- concentration at 0.5 hr ([2]; lungs, 0.5 hr, read-out: Organ distribution: Lungs): 122000 ng/g
- concentration at 0.5 hr ([2]; spleen, 50 not found, 0.5 hr, read-out: Organ distribution: Spleen): 123000 ng/g
- concentration at 2 hr ([2]; spleen, 50 not found, 2 hr, read-out: Organ distribution: Spleen): 140000 ng/g
- concentration at 4 hr ([2]; spleen, 50 not found, 4 hr, read-out: Organ distribution: Spleen): 52500 ng/g
- concentration at 12 hr ([2]; spleen, 50 not found, 12 hr, read-out: Organ distribution: Spleen): 9100 ng/g
- concentration at 0.5 hr ([2]; stomach, 0.5 hr, read-out: Organ distribution: Stomach): 378000 ng/g
- concentration at 2 hr ([2]; stomach, 2 hr, read-out: Organ distribution: Stomach): 689000 ng/g
- concentration at 4 hr ([2]; stomach, 4 hr, read-out: Organ distribution: Stomach): 227000 ng/g
- concentration at 12 hr ([2]; stomach, 12 hr, read-out: Organ distribution: Stomach): 43300 ng/g
- concentration at 0.5 hr ([2]; urine, 0.5 hr, read-out: Organ distribution: Urine/ml): 2600 ng/mL
- concentration at 2 hr ([2]; urine, 2 hr, read-out: Organ distribution: Urine/ml): 6560 ng/mL
- concentration at 4 hr ([2]; urine, 4 hr, read-out: Organ distribution: Urine/ml): 4070 ng/mL
- concentration at 0.5 hr ([2]; male, testes, 0.5 hr, read-out: Organ distribution: Testes): 168000 ng/g
- concentration at 2 hr ([2]; male, testes, 2 hr, read-out: Organ distribution: Testes): 313000 ng/g
- concentration at 4 hr ([2]; male, testes, 4 hr, read-out: Organ distribution: Testes): 58800 ng/g
- concentration at 12 hr ([2]; male, testes, 12 hr, read-out: Organ distribution: Testes): 7800 ng/g
- RR ([3]; 0 mins): 89.4 ± 1.4
- HR ([3]; 0 mins): 242.1 ± 9.7
- DBP ([3]; 0 mins): 71.7 ± 10.2
- SBP ([3]; 0 mins): 112 ± 2.89
- RR ([3]; 1 hr): 85.77 ± 8.9
- HR ([3]; 1 hr): 309.1 ± 45.9
- DBP ([3]; 1 hr): 82.1 ± 4.5
- SBP ([3]; 1 hr): 115.4 ± 3.6
- RR ([3]; 2 hr): 89.5 ± 2.56
- HR ([3]; 2 hr): 261 ± 13.8
- DBP ([3]; 2 hr): 77.5 ± 6.07
- SBP ([3]; 2 hr): 114.5 ± 2.8
- RR ([3]; 3 hr): 84.5 ± 3.5
- HR ([3]; 3 hr): 272.7 ± 17.5
- DBP ([3]; 3 hr): 78.5 ± 8.1
- SBP ([3]; 3 hr): 110.2 ± 4.5
- RR ([3]; 4 hr): 96.3 ± 2.1
- HR ([3]; 4 hr): 273.1 ± 17.06
- DBP ([3]; 4 hr): 75.9 ± 8.2
- SBP ([3]; 4 hr): 108.7 ± 5.2
- change in blood pressure, heart rate and respiratory rate ([3]; rats, before and after treatment): No significant change in blood pressure, heart rate and respiratory rate
- perivascular and peribronchial inflammation [4]: reduced both perivascular and peribronchial inflammation in a dose dependent manner
- plasma binding [5]: high plasma binding
- metabolism [6]: metabolized by CYP 3A4 (liver)
